What was measured:
Format in all cases: in vivo
[1] = Experiment 6 sensory evaluation of cyclic dipeptides, “boosting of last flavor (aftertaste)”
Outline: (§1)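 Reduced-sodium curry roux (44 g in 300 g hot water) was spiked with cyclic dipeptide solutions matching heat-treated coriander or paprika levels, at 0.5% or 1.0% (w/w) final. Three evaluators scored each sample against unspiked reduced-sodium and common roux. Mean scores were graded F to AA.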

[2] = Experiment 1 sensory evaluation of “boosting of flavor” (cyclic dipeptides, coriander); details: for “boosting of flavor” Average: cyclic dipeptide aqueous solution (concentration as in heat-treated coriander) at final 0.2% (w/w) in reduced-sodium curry roux dispersion, score 1-5; for “boosting of flavor” Evaluation: cyclic dipeptide aqueous solution at final 0.2% (w/w) in reduced-sodium curry roux dispersion, class of average score
Description: Flour roux was prepared by putting 20 g of flour and 30 g of beef tallow in a pan, then heating with stirring at 120° C. To this flour roux were added 10 g of sodium chloride, 10 g of sugar, 10 g of cornstarch, 5 g of curry powder and 15 g of other seasoning ingredients (vegetable and fruit extracts, yeast extract and seafood extract), and after heat-treatment to 105° C., the mixture was cooled and solidified, to form a block of common curry roux.
The sodium chloride equivalent per 100 g of this curry roux was 10.6 g.
Reduced-sodium curry roux was prepared according to the same procedure, except that the amount of sodium chloride was reduced to 7 g from the amount in the common curry roux in (1).
The sodium chloride equivalent per 100 g of this reduced-sodium curry roux was 7.7 g.
Out of the cyclic dipeptides included in the heat-treated coriander prepared in 1.1. described above, which were confirmed to be increased in 1.2. above, an aqueous solution of the respective 14 cyclic dipeptides shown in the table described below was prepared. The concentration of the cyclic dipeptide in each aqueous solution was set to be equal to its concentration in the heat-treated coriander prepared in 1.1. described above, which was estimated from the ratio of the peak area of the cyclic dipeptide to the peak area of the internal standard (47 μg/g L-lysine-^13C6 monohydrochloride) confirmed in 1.2. described above.
Two dispersions of 44 g of the reduced-sodium curry roux in (2) dispersed in 300 g of hot water were prepared.
To one of them was added the heat-treated coriander or the powdered unheated coriander prepared in 1.1. described above, or the cyclic dipeptide aqueous solution (corresponding to the heat-treated coriander) prepared in (3) above, so that the final concentration was 0.2% (w/w), and a sensory evaluation was carried out.
Forty-four grams of the common curry roux in (1) was dispersed in 300 g of hot water.
The dispersion of reduced-sodium curry roux dispersed in hot water and the dispersion of common curry roux dispersed in hot water were used as comparative controls, and the strength of the flavor was evaluated by four evaluators on the basis of the following evaluation criteria from the viewpoint of “boosting of flavor.” The term “boosting of flavor” in this experiment is an effect concerted by the combination of sodium chloride and other foodstuffs in curry roux, and is an aspect of “saltiness.” Thus, the “flavor” in this experiment can be also expressed as “saltiness.”
The average of the evaluated scores was defined as “F” when it was 1.0 or lower, “C” when it was 1.1 or higher and 1.9 or lower, “B” when it was 2.0 or higher and 2.5 or lower, “A” when it was 2.6 or higher and 2.9 or lower, and “AA” when it was 3.0 or higher.

[3] = Experiment 6 sensory evaluation of cyclic dipeptides, “top sharp saltiness”
Outline: as §1

[4] = Experiment 6 sensory evaluation of cyclic dipeptides, “middle fullness (enhanced thickness)”
Outline: as §1

[5] = Additive amount coriander 0.5%, reduced-sodium curry roux
[6] = heat-treated coriander equivalent aqueous solution of cyclic dipeptide, final 1.0% (w/w) in reduced-sodium curry roux dispersion
[7] = heat-treated coriander equivalent aqueous solution of cyclic dipeptide, final 1.0% (w/w) in reduced-sodium curry roux dispersion, 3 evaluators
[8] = Additive amount coriander 0.5% (heat-treated coriander equivalent aqueous solution, final 0.5% (w/w)), reduced-sodium curry roux
[9] = Additive amount paprika 0.5%, reduced-sodium curry roux
[10] = heat-treated paprika equivalent aqueous solution of cyclic dipeptide, final 1.0% (w/w) in reduced-sodium curry roux dispersion
[11] = heat-treated paprika equivalent aqueous solution of cyclic dipeptide, final 1.0% (w/w) in reduced-sodium curry roux dispersion, 3 evaluators

Substance	Bosting of last flavor Average [1, 5] [points]	Bosting of last flavor Evaluation [1, 5]	Bosting of last flavor Evaluation [1, 6]	Bosting of last flavor Average [1, 7] [points]	“boosting of flavor” Average [2] [points]	“boosting of flavor” Evaluation [2]	Top sharp saltiness Average [3, 8] [points]	Top sharp saltiness Evaluation [3, 5]	Top sharp saltiness Evaluation [3, 6]	Top sharp saltiness Average [3, 7] [points]	Middle fullness Average [4, 5] [points]	Middle fullness Evaluation [4, 5]	Middle fullness Evaluation [4, 6]	Middle fullness Average [4, 7] [points]	further results
cyclic (Ala-Leu/Ile) [Coriander ID 32]	2.1	B (“B” when it was 2.0 or higher and 2.5 or lower)	AA (“AA” when it was 3.0 or higher)	3.2	2.8	A (“A” when it was 2.6 or higher and 2.9 or lower)	2.1	B (“B” when it was 2.0 or higher and 2.5 or lower)	B (“B” when it was 2.0 or higher and 2.5 or lower)	2.5	2.2	B (“B” when it was 2.0 or higher and 2.5 or lower)	A (“A” when it was 2.6 or higher and 2.9 or lower)	2.8	
cyclic (Ala-Pro) [Coriander ID 23]					2.0	B (“B” when it was 2.0 or higher and 2.5 or lower)									Bosting of last flavor Average [1, 9]: 2.2 points; Bosting of last flavor Evaluation [1, 9]: B (“B” when it was 2.0 or higher and 2.5 or lower); Bosting of last flavor Evaluation [1, 10]: AA (“AA” when it was 3.0 or higher); Bosting of last flavor Average [1, 11]: 3.0 points; Top sharp saltiness Average ([3]; Additive amount paprika 0.5% (heat-treated paprika equivalent aqueous solution, final 0.5% (w/w)), reduced-sodium curry roux): 2.3 points; Top sharp saltiness Evaluation [3, 9]: B (“B” when it was 2.0 or higher and 2.5 or lower); Top sharp saltiness Evaluation [3, 10]: A (“A” when it was 2.6 or higher and 2.9 or lower); Top sharp saltiness Average [3, 11]: 2.7 points; Middle fullness Average [4, 9]: 2.2 points; Middle fullness Evaluation [4, 9]: B (“B” when it was 2.0 or higher and 2.5 or lower); Middle fullness Evaluation [4, 10]: AA (“AA” when it was 3.0 or higher); Middle fullness Average [4, 11]: 3.0 points
cyclic (Ala-Val) [Coriander ID 27]	2.3	B (“B” when it was 2.0 or higher and 2.5 or lower)	A (“A” when it was 2.6 or higher and 2.9 or lower)	2.7	3.0	AA (“AA” when it was 3.0 or higher)	2.3	B (“B” when it was 2.0 or higher and 2.5 or lower)	B (“B” when it was 2.0 or higher and 2.5 or lower)	2.5	2.2	B (“B” when it was 2.0 or higher and 2.5 or lower)	AA (“AA” when it was 3.0 or higher)	3.0	“boosting of flavor” in words ([2]; added to reduced-sodium curry roux dispersion, compared with no addition, unheated coriander or common curry roux): comparable flavor to that of the dispersion of common curry roux
cyclic (Arg-Pro) [Coriander ID 45]	2.8	A (“A” when it was 2.6 or higher and 2.9 or lower)	B (“B” when it was 2.0 or higher and 2.5 or lower)	2.2	2.0	B (“B” when it was 2.0 or higher and 2.5 or lower)	2.0	B (“B” when it was 2.0 or higher and 2.5 or lower)	C (“C” when it was 1.1 or higher and 1.9 or lower)	1.8	2.5	B (“B” when it was 2.0 or higher and 2.5 or lower)	B (“B” when it was 2.0 or higher and 2.5 or lower)	2.0	

Source: US20260231994A1, “TASTE-ENHANCING COMPOSITION, METHOD FOR PRODUCING SAME, FOOD PRODUCT, AND METHOD FOR ENHANCING TASTE OF FOOD PRODUCT” (HOUSE FOODS GROUP INC., priority 2023, published 2026)
